Measured values as given in article PMC12797497, “Si-Ni-San improves the deposition of lipid droplets in MAFLD through modulating the FXR-GPAT4 axis” (Chinese Medicine, 2026).
“Also recorded” adds a separate entry of the source. Values belong to the molecule of their own block, whether it stands above or below them.

Assays:
FXR protein = biological target: T1, FXR protein (Homo sapiens, UniProt Q96RI1); test: Surface plasmon resonance (SPR), FXR immobilized on CM5 chip; type: binding; conditions: SPR steady-state affinity fit
T1 sequence (Q96RI1 1-486): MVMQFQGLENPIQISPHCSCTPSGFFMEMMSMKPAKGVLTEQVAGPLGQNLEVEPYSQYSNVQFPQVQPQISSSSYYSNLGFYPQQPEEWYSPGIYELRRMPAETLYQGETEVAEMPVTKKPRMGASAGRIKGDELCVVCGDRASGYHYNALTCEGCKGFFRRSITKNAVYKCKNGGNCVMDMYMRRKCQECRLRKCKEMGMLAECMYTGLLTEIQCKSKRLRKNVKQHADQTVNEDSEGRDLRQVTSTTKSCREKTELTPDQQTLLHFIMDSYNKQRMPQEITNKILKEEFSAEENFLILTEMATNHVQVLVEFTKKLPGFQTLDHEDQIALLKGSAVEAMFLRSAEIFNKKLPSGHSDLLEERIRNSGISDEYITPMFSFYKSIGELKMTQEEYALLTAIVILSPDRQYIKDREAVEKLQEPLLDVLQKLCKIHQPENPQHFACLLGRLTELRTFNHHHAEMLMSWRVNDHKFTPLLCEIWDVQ
Method: SPR analysis was performed by a Biacore S200 system (Cytiva, USA) equipped with a CM5 sensor chip. The FXR protein was immobilized on the chip via the standard amine coupling protocol, with the protein dissolved in a sodium acetate buffer at pH 4.5 and a concentration of 10 mM. […] Equilibrium dissociation constants (KD) were determined by fitting the response curves using the steady-state affinity model available in the Biacore S200 Evaluation Software.

GPAT4 [1] = test: GPAT4 protein expression in liver of MAFLD mice (western blot, IHC); type: in vivo, C57BL/6N mice; conditions: vs HFD group
Method: (§1) A standard diet was fed to the NC group, while HFD (D12451, Huanyu Hekang Biotechnology, China) was fed to the other four groups for 12 weeks. […] During this period, mice in the NC group and HFD group were given isovolumetric distilled water respectively.
Total protein was extracted using a protein extraction kit (PC201Plus, Epizyme). Then, the protein concentration was measured using a BCA kit (PC0020, Solarbio). The 50 μg of the total protein samples were loaded onto an SDS-PAGE gel. Following electrophoresis, the protein was transferred into polyvinylidene fluoride (PVDF) membranes. Whereafter, the membranes were first blocked with 5% nonfat dry milk in TBST and incubated with primary antibodies against FXR (bs-12867R, Bioss, 1:1000), GPAT4 (bs-15587R, Bioss, China, 1:1000), P62 (380612-50, Zenbio, China, 1:1000), HSL (344379-50, Zenbio, China, 1:1000), MAGL (PAD223Hu01, Cloud-Clone Corp, China, 1:1000), Beclin1 (BS-1353R, Bioss, China, 1:1000), ATGL (R389129-50, Bioss, China, 1:1000), LC3Ⅰ/Ⅱ (ABC929, Merck, USA, 1:1000), β-actin (bs-0061R, Bioss, China, 1:5000) and GAPDH (GB11002-100, Servicebio, China, 1:5000). […] Finally, the immune bands were detected using an ECL detection kit (sb-wb012, Shanghai Shenger Biotechnology Co., Ltd, China). The average gray value was quantified using Image J software. […]

[2] = system: HSL, ATGL, MAGL, P62, Beclin1, LC3Ⅰ/Ⅱ; test: Lipolysis- and lipophagy-related protein expression in liver of MAFLD mice (western blot); type: in vivo, C57BL/6N mice; conditions: vs HFD group
Method: as §1
(§2) Total protein was extracted using a protein extraction kit (PC201Plus, Epizyme). Then, the protein concentration was measured using a BCA kit (PC0020, Solarbio). The 50 μg of the total protein samples were loaded onto an SDS-PAGE gel. Following electrophoresis, the protein was transferred into polyvinylidene fluoride (PVDF) membranes. Whereafter, the membranes were first blocked with 5% nonfat dry milk in TBST and incubated with primary antibodies against FXR (bs-12867R, Bioss, 1:1000), GPAT4 (bs-15587R, Bioss, China, 1:1000), P62 (380612-50, Zenbio, China, 1:1000), HSL (344379-50, Zenbio, China, 1:1000), MAGL (PAD223Hu01, Cloud-Clone Corp, China, 1:1000), Beclin1 (BS-1353R, Bioss, China, 1:1000), ATGL (R389129-50, Bioss, China, 1:1000), LC3Ⅰ/Ⅱ (ABC929, Merck, USA, 1:1000), β-actin (bs-0061R, Bioss, China, 1:5000) and GAPDH (GB11002-100, Servicebio, China, 1:5000). After 12 h of incubation at 4 °C, the blots were proceeded with HRP-conjugated secondary antibody. Finally, the immune bands were detected using an ECL detection kit (sb-wb012, Shanghai Shenger Biotechnology Co., Ltd, China). The average gray value was quantified using Image J software.

LDAH = LDAH protein level in liver of MAFLD mice (western blot); type: in vivo, C57BL/6N mice; conditions: vs HFD group
MAFLD mice = test: HFD-induced MAFLD mouse model: body/liver weight, histology, serum biochemistry, hepatic TBA; type: in vivo, C57BL/6N mice; conditions: SNS 5.2 g/kg/d or OCA 10 mg/kg/d orally for 2 weeks
Excerpt: as §1
Serum samples were collected to measure the content of TG, total cholesterol (TC), alanine aminotransferase (ALT), aspartate aminotransferase (AST), high-density lipoprotein cholesterol (HDL-C), and low-density lipoprotein cholesterol (LDL-C). The Reado/Changchun Huili kit was used for the assay, measured by a fully automatic biochemistry analyzer.
The TBA content in liver tissue was detected by a TBA assay kit (E003-2-1, Nanjing Jiancheng Bioengineering Institute, China). According to the kit instruction manual, the liver tissues were subjected to lysis, after which the supernatant was collected and added to a 96-well plate. Blank controls and standard controls were set up. Subsequently, 180 μL of Reagent 1 was added, followed by gentle shaking to mix thoroughly, and incubation at 37 °C for 5 min. After that, 60 μL of Reagent 2 was added, mixed well by gentle shaking, and incubated at 37 °C for 1 min. The absorbance (A0) was measured at a wavelength of 405 nm using a microplate reader. Another incubation at 37 °C for 3 min was conducted, and then the absorbance (A1) was measured again. The ΔA value was calculated as ΔA = A1−A0, which represents the TBA content in the liver tissues.
Liver tissue from each group of mice was fixed in 4% formalin, embedded in paraffin, and prepared as paraffin tissue sections with a thickness of 5 μm. The sections were dewaxed and rehydrated, subsequently subjected to H&E staining, and finally examined under a microscope (Leica DM2500, Germany) for the observation of LDs.
Lipid accumulation in vivo was assessed by oil red O (ORO) staining (G1261, Solarbio, China). For liver tissue, frozen tissue sections were prepared at a thickness of 10 μm. After fixation in formalin, the sections were washed in 60% isopropanol and then stained with freshly prepared ORO working solution for 15 min. Following rinsing with 60% isopropanol, the sections were examined under a microscope.

FXR [3] = test: FXR protein expression in liver and colon of MAFLD mice (western blot, IHC); type: in vivo, C57BL/6N mice
Method: as §1, §2
The paraffin sections of liver were performed dewaxing followed by antigen retrieval, then add FXR primary antibody (bs-12867R, Bioss, 1:200) and GPAT4 primary antibody (bs-1924R, Bioss, 1:200), and incubate overnight at 4 °C. After the diaminobenzidine (DAB) enhanced staining, the sections were mounted with neutral gum. Finally, the images were observed and captured via a Leica DM4000B light microscope (Germany).

[4] = system: oleic acid-induced HepG2 cells; test: ORO staining of lipid droplets in oleic acid-induced HepG2 cells; type: cell-based, human; conditions: HepG2, OA 24 h; 15% SNS-containing serum vs NS serum, or OCA 1 μM
Method: (§3) The HepG2 cell line was purchased from the American Type Culture Collection (Manassas, USA) and cultured in RPMI 1640 medium (Solarbio, China) with 10% fetal bovine serum (Gibco, USA) in an atmosphere with 5% CO2 and 100% humidity at 37 ℃. Oleic acid (OA) was purchased from Shanghai Macklin Biochemical Co., Ltd. (C11391320, Macklin, China). […] Cells were inoculated into 6-well plates and 96-well plates and treated with OA solution and SNS/NS-containing serum for 24 h.
In vitro, the HepG2 cell cells were firstly seeded in 6-well plates (3 × 10^5 cells/well). After the cells were washed with PBS, ORO fixative was added to each well for 20–30 min, and 60% isopropyl alcohol was added to each well for 5 min. Then, ORO staining solution was used to stain the cells for 10–20 min. After the cells were washed with PBS, hematoxylin staining solution was used to re-stain the nucleus. Then, we added ORO buffer for 1 min. Finally, we used glycerin gelatin to seal the tablets. The changes in LDs were measured with Image Pro Plus v6.0 software (Media Cybemetic, USA).

GPAT4 [5] = test: GPAT4 expression in oleic acid-induced HepG2 cells (western blot); type: cell-based, human; conditions: HepG2, OA 24 h; 15% SNS-containing serum or OCA 1 μM
Method: as §3
(§4) Total protein was extracted using a protein extraction kit (PC201Plus, Epizyme). Then, the protein concentration was measured using a BCA kit (PC0020, Solarbio). The 50 μg of the total protein samples were loaded onto an SDS-PAGE gel. Following electrophoresis, the protein was transferred into polyvinylidene fluoride (PVDF) membranes. […] Finally, the immune bands were detected using an ECL detection kit (sb-wb012, Shanghai Shenger Biotechnology Co., Ltd, China). The average gray value was quantified using Image J software.

FXR [6] = test: FXR expression in oleic acid-induced HepG2 cells (western blot); type: cell-based, human; conditions: HepG2, OA 24 h; 15% SNS-containing serum or OCA 1 μM
Method: as §3, §4

NASH = system: NASH; parameters: method as in PMID 38324483; conditions: MAESTRO-NASH Phase III trial; cited from earlier work
[7] = system: T2DM and high-risk obese individuals; conditions: cited from earlier work

Molecule: COc1ccc([C@@H]2CC(=O)c3c(O)cc(O[C@@H]4O[C@H](CO[C@@H]5O[C@@H](C)[C@H](O)[C@@H](O)[C@H]5O)[C@@H](O)[C@H](O)[C@H]4O)cc3O2)cc1O [Hesperidin]
Rmax (FXR protein): 49.9 RU

Molecule: COc1cc(-c2oc3cc(O)cc(O)c3c(=O)c2O)ccc1O [Isorhamnetin]
Rmax (FXR protein): 20.3 RU

Molecule: O=C1C[C@@H](c2ccc(O[C@@H]3O[C@H](CO)[C@@H](O)[C@H](O)[C@H]3O)cc2)Oc2cc(O)ccc21 [Liquiritin]
Rmax (FXR protein): 12.1 RU

Molecule: CC(C)c1cc(Oc2c(Cl)cc(-n3nc(C#N)c(=O)[nH]c3=O)cc2Cl)n[nH]c1=O [Resmetirom]
LDL-C decrease (NASH): 13–16%
NASH resolution (NASH): 26–30%
fibrosis improvement (NASH): 24–26%
tolerability / adverse events (NASH): well-tolerated, with primarily mild diarrhea and nausea, and a serious adverse event rate comparable to placebo

Molecule: Semaglutide
reduction in major adverse cardiovascular events ([7]; SUSTAIN 6 and SELECT, T2DM and high-risk obese individuals): 18–20%
weight loss [7]: at least 10%
safety profile ([7]; human, in vivo): common gastrointestinal reactions and infrequent serious adverse events

Continued, in another order:

Rmax (FXR protein): 181.5 RU
Molecule: COc1ccc([C@@H]2CC(=O)c3c(O)cc(O[C@@H]4O[C@H](CO)[C@@H](O)[C@H](O)[C@H]4O[C@@H]4O[C@@H](C)[C@H](O)[C@@H](O)[C@H]4O)cc3O2)cc1O [Neohesperidin]

Rmax (FXR protein): 210.1 RU
Molecule: COc1ccc(-c2cc(=O)c3c(OC)c(OC)c(OC)c(OC)c3o2)cc1OC [Nobiletin]

Rmax (FXR protein): 32.0 RU
Molecule: CC[C@H]1[C@@H](O)[C@@H]2[C@H](CC[C@]3(C)[C@@H]([C@H](C)CCC(=O)O)CC[C@@H]23)[C@@]2(C)CC[C@@H](O)C[C@@H]12 [OCA, Obeticholic acid]
positive localization of GPAT4 in liver tissues (GPAT4 [1]; IHC): reduced the positive localization of GPAT4 in liver tissues
GPAT4 expression in liver (GPAT4 [1]; western blot): inhibited GPAT4 expressions
ATGL expression [2]: increased HSL and ATGL expression
Beclin1 expression [2]: activated Beclin1
HSL expression [2]: increased HSL and ATGL expression
MAGL expression [2]: decreased MAGL expression
P62 expression [2]: suppressed P62 expression
protein level of LDAH (LDAH): downregulated LDAH
liver coefficient (liver weight/body weight) (MAFLD mice): restored to normal levels
body weight at week 12 (MAFLD mice; vs HFD group): significantly decreased body weight
hepatic TBA level (MAFLD mice; vs HFD group): reduced TBA levels
liver LDs deposition (H&E and ORO staining) (MAFLD mice; vs HFD group): significantly reduced LDs compared to the HFD group
liver weight (MAFLD mice; vs HFD group): significant reduction in liver weights
serum ALT (MAFLD mice; vs HFD group): effectively reduced liver injury induced by HFD
serum AST (MAFLD mice; vs HFD group): effectively reduced liver injury induced by HFD
serum LDL-C (MAFLD mice; vs HFD group): reduced following SNS and OCA treatment
serum TC (MAFLD mice; vs HFD group): reduced following SNS and OCA treatment
serum TG (MAFLD mice; vs HFD group): reduced following SNS and OCA treatment
positive localization of FXR in liver tissues (FXR [3]; IHC, liver): increased the positive localization of FXR in liver tissues
FXR expression in the colon (FXR [3]; western blot, colon, vs HFD group): elevated colonic FXR expression
hepatic FXR expression (FXR [3]; western blot, liver, vs HFD group): activated its expression; also recorded: activated FXR
intracellular LDs accumulation (ORO staining) [4]: reduced LDs deposition in cells
GPAT4 expression in cells (GPAT4 [5]): inhibited GPAT4 expression in cells
FXR expression in cells (FXR [6]): increased FXR expression
